From PubChem BioAssay (NCI)
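Cells were grown in 96-well plates and exposed to each compound for 48 hours at five concentrations; endpoints were interpolated linearly between bracketing concentrations, or set to the highest concentration if not reached. GI50 marks 50% less growth. TGI denotes the concentration required for complete inhibition of growth.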

Assays:
Assay in all cases: NCI anticancer screen, dose series, 48 h
[1] = system: 786-0 renal
[2] = system: A498 renal
[3] = system: A549 NSCLC
[4] = system: ACHN renal
[5] = system: BT-549 breast
[6] = system: CAKI-1 renal
[7] = system: CCRF-CEM leukemia
[8] = system: COLO 205 colon
[9] = system: DU-145 prostate
[10] = system: EKVX NSCLC
[11] = system: HCC-2998 colon
[12] = system: HCT-116 colon
[13] = system: HCT-15 colon
[14] = system: HL-60(TB) leukemia
[15] = system: HOP-62 NSCLC
[16] = system: HOP-92 NSCLC
[17] = system: HS 578T breast
[18] = system: HT29 colon
[19] = system: IGROV1 ovarian
[20] = system: K-562 leukemia
[21] = system: KM12 colon
[22] = system: LOX IMVI melanoma
[23] = system: M14 melanoma
[24] = system: MALME-3M melanoma
[25] = system: MCF7 breast
[26] = system: MDA-MB-231 breast
[27] = system: MDA-MB-435
[28] = system: MDA-MB-468 breast
[29] = system: MOLT-4 leukemia
[30] = system: NCI-H226 lung
[31] = system: NCI-H23 lung
[32] = system: NCI-H460 lung
[33] = system: NCI-H522 lung
[34] = system: NCI/ADR-RES ovarian
[35] = system: OVCAR-3 ovarian
[36] = system: OVCAR-4 ovarian
[37] = system: OVCAR-5 ovarian
[38] = system: OVCAR-8 ovarian
[39] = system: PC-3 prostate
[40] = system: RPMI-8226 leukemia
[41] = system: RXF 393 renal
[42] = system: SF-268 CNS
[43] = system: SF-295 CNS
[44] = system: SF-539 CNS
[45] = system: SK-MEL-2 melanoma
[46] = system: SK-MEL-28 melanoma
[47] = system: SK-MEL-5 melanoma
[48] = system: SK-OV-3 ovarian
[49] = system: SN12C renal
[50] = system: SNB-19 CNS
[51] = system: SNB-75 CNS
[52] = system: SR leukemia
[53] = system: SW-620 colon
[54] = system: T-47D breast
[55] = system: TK-10 renal
[56] = system: U251 CNS
[57] = system: UACC-257 melanoma
[58] = system: UACC-62 melanoma
[59] = system: UO-31 renal

SMILES: O=C(CS(=O)(=O)c1oc(-c2ccc(Cl)cc2)nc1S(=O)(=O)c1ccc(Cl)cc1)N1CCOCC1
- GI50 [1]: 7.65 µM
- TGI [1]: 21.8 µM
- GI50 [2]: 26.8 µM
- TGI [2]: 93.4 µM
- GI50 [3]: 45.9 µM
- TGI [3]: > 100 µM
- GI50 [4]: 3.17 µM
- TGI [4]: 11.3 µM
- GI50 [5]: 4.64 µM
- TGI [5]: 16.8 µM
- GI50 [6]: 6.63 µM
- TGI [6]: 19.4 µM
- GI50 [7]: 1.68 µM
- TGI [7]: 24.2 µM
- GI50 [8]: 11.6 µM
- TGI [8]: 55.9 µM
- GI50 [9]: 12.3 µM
- TGI [9]: 24.8 µM
- GI50 [10]: 12.1 µM
- TGI [10]: 26.4 µM
- GI50 [11]: 17.2 µM
- TGI [11]: 40.8 µM
- GI50 [12]: 3.04 µM
- TGI [12]: 11.4 µM
- GI50 [13]: 2.27 µM
- TGI [13]: 5.68 µM
- GI50 [14]: 4.49 µM
- TGI [14]: 34.9 µM
- GI50 [15]: 18.1 µM
- TGI [15]: 47.3 µM
- GI50 [16]: 10.7 µM
- TGI [16]: 28.6 µM
- GI50 [17]: 7.9 µM
- TGI [17]: 36.4 µM
- GI50 [18]: 4.32 µM
- TGI [18]: 40.2 µM
- GI50 [19]: 11 µM
- TGI [19]: 23.7 µM
- GI50 [20]: 2.14 µM
- TGI [20]: > 100 µM
- GI50 [21]: 29.5 µM
- TGI [21]: > 100 µM
- GI50 [22]: 1.84 µM
- TGI [22]: 4.27 µM
- GI50 [23]: 6.75 µM
- TGI [23]: 21 µM
- GI50 [24]: 2.81 µM
- TGI [24]: 9.77 µM
- GI50 [25]: 4 µM
- TGI [25]: 18.5 µM
- GI50 [26]: 6.7 µM
- TGI [26]: 19.3 µM
- GI50 [27]: 12 µM
- TGI [27]: 25.7 µM
- GI50 [28]: 2.52 µM
- TGI [28]: 8.07 µM
- GI50 [29]: 2.54 µM
- TGI [29]: 18.7 µM
- GI50 [30]: 22.9 µM
- TGI [30]: 91 µM
- GI50 [31]: 13.4 µM
- TGI [31]: 26.5 µM
- GI50 [32]: 16.5 µM
- TGI [32]: 39.4 µM
- GI50 [33]: 1.64 µM
- TGI [33]: 3.51 µM
- GI50 [34]: 14.5 µM
- TGI [34]: 31.2 µM
- GI50 [35]: 3.3 µM
- TGI [35]: 10.5 µM
- GI50 [36]: 12.7 µM
- TGI [36]: 27.6 µM
- GI50 [37]: 13.6 µM
- TGI [37]: 31.6 µM
- GI50 [38]: 15.4 µM
- TGI [38]: 35.4 µM
- GI50 [39]: 11.9 µM
- TGI [39]: 31.5 µM
- GI50 [40]: 5.2 µM
- TGI [40]: > 100 µM
- GI50 [41]: 2.58 µM
- TGI [41]: 8.82 µM
- GI50 [42]: 15.1 µM
- TGI [42]: 33.7 µM
- GI50 [43]: 16.9 µM
- TGI [43]: 54.7 µM
- GI50 [44]: 7.94 µM
- TGI [44]: 20.5 µM
- GI50 [45]: 16.7 µM
- TGI [45]: 32.4 µM
- GI50 [46]: 12.1 µM
- TGI [46]: 24.5 µM
- GI50 [47]: 24.3 µM
- TGI [47]: 86.3 µM
- GI50 [48]: 40.8 µM
- TGI [48]: > 100 µM
- GI50 [49]: 12.1 µM
- TGI [49]: 25.8 µM
- GI50 [50]: 27.5 µM
- TGI [50]: > 100 µM
- GI50 [51]: 4.89 µM
- TGI [51]: 23.2 µM
- GI50 [52]: 2.86 µM
- TGI [52]: > 100 µM
- GI50 [53]: 2.06 µM
- TGI [53]: 4.8 µM
- GI50 [54]: 3.32 µM
- TGI [54]: 16.3 µM
- GI50 [55]: 14.3 µM
- TGI [55]: 27.8 µM
- GI50 [56]: 38 µM
- TGI [56]: > 100 µM
- GI50 [57]: 15.4 µM
- TGI [57]: 30.2 µM
- GI50 [58]: 11.1 µM
- TGI [58]: 23.8 µM
- GI50 [59]: 8.79 µM
- TGI [59]: 21.1 µM
